Test results published in ChEMBL document CHEMBL1151124, “Photodiode Array Detection and Structures of Griseolic Acid Analogues from Culture Broth” (J Nat Prod, 1988).
Calls of active or inactive are those of the source. The calls are words filed in the database; no cut-off is given here.

Assay: Inhibition of cAMP-specific 3',5'-cyclic phosphodiesterase
In the case of `Nc1ncnc2c1ncn2[C@@H]1O[C@@H]2C[C@](CC(=O)O)(C(=O)O)O[C@H]2[C@H]1O`, the Activity is reported as “Active”.
With `Nc1ncnc2c1ncn2[C@@H]1OC2=C[C@](CC(=O)O)(C(=O)O)O[C@H]2[C@H]1O` the Activity was “Active”.
For `Nc1ncnc2c1ncn2[C@@H]1OC2=C[C@@](C(=O)O)(C(O)C(=O)O)O[C@H]2[C@H]1O` (some centres undefined), the Activity was “Active”.
With `Nc1ncnc2c1ncn2[C@@H]1O[C@H](C[C@@H](CC(=O)O)C(=O)O)[C@@H](O)[C@H]1O` the Activity was “inactive”.
